Measurements as given in publication PMC6309603 (Molecular diversity, 2018).
Like-named read-outs stand apart in the source and are kept apart here.

Assays:
AChE = AChE (Homo sapiens, UniProt P22303); assay: biochemical; conditions: for Selectivity for AChE: IC50 (BChE)/IC50 (AChE)
BChE = BChE (Homo sapiens, UniProt P06276); assay: biochemical
[1] = read-out: IC50 AChE, means±SD of three assays, 30 min, 30 °C, pH 8.0
[2] = read-out: IC50 BChE, means±SD of three assays, 30 min, 30 °C, pH 8.0

Sequence of AChE (P22303 32-614): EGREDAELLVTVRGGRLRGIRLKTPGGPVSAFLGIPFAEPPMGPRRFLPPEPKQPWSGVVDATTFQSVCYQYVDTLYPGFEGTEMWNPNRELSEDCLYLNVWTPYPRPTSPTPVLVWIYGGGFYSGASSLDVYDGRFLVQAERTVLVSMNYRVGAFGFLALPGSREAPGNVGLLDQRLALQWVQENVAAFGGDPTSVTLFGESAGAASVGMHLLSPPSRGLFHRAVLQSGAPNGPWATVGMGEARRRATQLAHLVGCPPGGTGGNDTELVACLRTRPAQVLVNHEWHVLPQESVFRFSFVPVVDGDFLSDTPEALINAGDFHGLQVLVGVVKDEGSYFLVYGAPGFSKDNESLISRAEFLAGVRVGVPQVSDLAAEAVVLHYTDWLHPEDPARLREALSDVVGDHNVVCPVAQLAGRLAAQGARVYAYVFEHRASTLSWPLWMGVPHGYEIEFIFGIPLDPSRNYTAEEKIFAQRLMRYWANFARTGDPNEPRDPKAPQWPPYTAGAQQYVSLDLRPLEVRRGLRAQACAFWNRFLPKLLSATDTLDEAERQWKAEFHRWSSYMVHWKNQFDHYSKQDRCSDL
Sequence of BChE (P06276 29-602): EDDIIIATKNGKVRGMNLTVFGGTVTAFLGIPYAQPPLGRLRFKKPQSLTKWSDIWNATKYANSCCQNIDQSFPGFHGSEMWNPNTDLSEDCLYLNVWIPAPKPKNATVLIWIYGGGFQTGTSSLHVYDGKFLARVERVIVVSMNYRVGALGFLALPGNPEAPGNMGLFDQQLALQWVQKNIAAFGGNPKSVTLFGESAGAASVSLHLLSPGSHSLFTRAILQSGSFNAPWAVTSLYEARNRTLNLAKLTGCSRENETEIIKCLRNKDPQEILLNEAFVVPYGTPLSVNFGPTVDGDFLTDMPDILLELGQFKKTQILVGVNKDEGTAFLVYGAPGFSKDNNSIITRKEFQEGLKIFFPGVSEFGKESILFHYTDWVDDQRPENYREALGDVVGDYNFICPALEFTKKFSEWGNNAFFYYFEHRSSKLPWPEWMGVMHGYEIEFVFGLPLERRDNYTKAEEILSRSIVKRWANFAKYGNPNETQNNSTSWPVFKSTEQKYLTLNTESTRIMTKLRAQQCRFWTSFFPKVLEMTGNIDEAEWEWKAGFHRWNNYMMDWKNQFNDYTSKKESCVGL

Q: For O=C(/C=C/c1ccc(OCC(=O)N2CCCC2)cc1)c1cc2ccccc2oc1=O [Compound 9e, (E)-3-(3-(4-(2-oxo-2-(pyrrolidin-1-yl)ethoxy)phenyl)acryloyl)-2H-chromen-2-one], which IC50 (AChE) is on record?
A: > 500 µM

Q: And the IC50 (BChE)?
A: > 500 µM

Q: Which results are given for O=C(/C=C/c1cccc(OCCN2CCCCC2)c1)c1cc2ccccc2oc1=O [Compound 6f, (E)-3-(3-(3-(2-(piperidin-1-yl)ethoxy)phenyl)acryloyl)-2H-chromen-2-one]?
A: IC50 (AChE): 0.61 ± 0.02 µM; Selectivity for AChE (AChE): 6.61; IC50 (BChE): 4.01 ± 0.14 µM

Q: Which results are given for O=C(/C=C/c1ccccc1OCC(=O)N1CCCCC1)c1cc2ccccc2oc1=O [Compound 11f, (E)-3-(3-(2-(2-oxo-2-(piperidin-1-yl)ethoxy)phenyl)acryloyl)-2H-chromen-2-one]?
A: IC50 (AChE): > 500 µM; IC50 (BChE): 106 ± 3.09 µM

Q: With O=C(/C=C/c1cccc(OCCN2CCCC2)c1)c1cc2ccccc2oc1=O [Compound 6e, (E)-3-(3-(3-(2-(pyrrolidin-1-yl)ethoxy)phenyl)acryloyl)-2H-chromen-2-one] as the compound, how does the IC50 (AChE) read?
A: 3.25 ± 0.14 µM

Q: What about the “inhibitory activity against AChE (in words)” value (AChE) of the same compound?
A: moderate inhibitory activity

Q: And the “selectivity over BChE (in words)” value (AChE)?
A: low selectivity

Q: What about the “Selectivity for AChE” value (AChE) of the same compound?
A: 1.42

Q: And the IC50 (BChE)?
A: 4.62 ± 0.16 µM

Q: With O=C(/C=C/c1ccccc1OCCN1CCCCC1)c1cc2ccccc2oc1=O [Compound 7f, (E)-3-(3-(2-(2-(piperidin-1-yl)ethoxy)phenyl)acryloyl)-2H-chromen-2-one] as the compound, how does the IC50 (AChE) read?
A: 29.9 ± 0.98 µM

Q: And the “Selectivity for AChE” value (AChE)?
A: 0.15

Q: And the IC50 (BChE)?
A: 4.5 ± 0.22 µM

Q: Which results are given for COc1cc(/C=C/C(=O)c2cc3ccccc3oc2=O)cc(OC)c1OCCN1CCCC1 [Compound 13l, (E)-3-(3-(3,5-dimethoxy-4-(2-(pyrrolidin-1-yl)ethoxy)phenyl)acryloyl)-2H-chromen-2-one]?
A: IC50 (AChE): 29 ± 1.68 µM; Selectivity for AChE (AChE): 0.47; IC50 (BChE): 13.6 ± 0.53 µM

Q: What does the source list for COc1cc(/C=C/C(=O)c2cc3ccccc3oc2=O)ccc1OCCN1CCCCC1 [Compound 12m, (E)-3-(3-(3-methoxy-4-(2-(piperidin-1-yl)ethoxy)phenyl)acryloyl)-2H-chromen-2-one]?
A: IC50 (AChE): 0.37 ± 0.02 µM; Selectivity for AChE (AChE): 1.41; IC50 (BChE): 0.52 ± 0.01 µM

Q: Which results are given for COc1cc(/C=C/C(=O)c2cc3ccccc3oc2=O)cc(OC)c1OCCN(C)C [Compound 13k, (E)-3-(3-(4-(2-(dimethylamino)ethoxy)-3,5-dimethoxyphenyl)acryloyl)-2-chromen-2-one]?
A: Selectivity for AChE (AChE): 1.87; IC50 (AChE; [1]): 7.07 ± 0.46 µM; IC50 (BChE; [2]): 13.2 ± 0.32 µM

Q: For CN(C)C(=O)COc1ccc(/C=C/C(=O)c2cc3ccccc3oc2=O)cc1 [Compound 9d, (E)-N,N-dimethyl-2-(4-(3-oxo-3-(2-oxo-2H-chromen-3-yl)prop-1-en-1-yl)phenoxy)acetamide], which IC50 (AChE) is on record?
A: 18.6 ± 1.06 µM

Q: And the “Selectivity for AChE” value (AChE)?
A: >26.86

Q: What about the IC50 (BChE) of the same compound?
A: > 500 µM

Q: Which results are given for O=C(/C=C/c1ccc(OCCN2CCOCC2)cc1)c1cc2ccccc2oc1=O [Compound 5h, (E)-3-(3-(4-(2-morpholinoethoxy)phenyl)acryloyl)-2H-chromen-2-one]?
A: IC50 (AChE): > 500 µM; inhibitory activity against AChE (in words) (AChE): almost has no inhibitory activity; IC50 (AChE; [1]): > 500 µM; IC50 (BChE): > 500 µM; inhibitory activity against BChE (in words) (BChE): almost has no inhibitory activity; IC50 (BChE; [2]): > 500 µM

Q: With COc1cc(/C=C/C(=O)c2cc3ccccc3oc2=O)ccc1OCCN(C)C [Compound 12k, (E)-3-(3-(4-(2-(dimethylamino)ethoxy)-3-methoxyphenyl)acryloyl)-2H-chromen-2-one] as the compound, how does the IC50 (AChE) read?
A: 1.65 ± 0.09 µM

Q: And the “Selectivity for AChE” value (AChE)?
A: 5.15

Q: What about the IC50 (BChE) of the same compound?
A: 8.48 ± 0.29 µM

Q: CCN(CC)CCOc1cccc(/C=C/C(=O)c2cc3ccccc3oc2=O)c1 [Compound 6g, (E)-3-(3-(3-(2-(diethylamino)ethoxy)phenyl)acryloyl)-2H-chromen-2-one] was tested. Which IC50 (AChE) did it give?
A: 51.3 ± 1.04 µM

Q: What about the “Selectivity for AChE” value (AChE) of the same compound?
A: 0.02

Q: What about the IC50 (BChE) of the same compound?
A: 1.12 ± 0.11 µM

Q: For O=C(/C=C/c1ccc(OCC(=O)N2CCCCC2)cc1)c1cc2ccccc2oc1=O [Compound 9f, (E)-3-(3-(4-(2-oxo-2-(piperidin-1-yl)ethoxy)phenyl)acryloyl)-2H-chromen-2-one], which IC50 (AChE) is on record?
A: > 500 µM

Q: And the IC50 (BChE)?
A: > 500 µM
